In US20120040976A1, “SMALL MOLECULE IMMUNOMODULATORS FOR ALZHEIMER'S DISEASE” (HUMAN BIOMOLECULAR RESEARCH INSTITUTE, priority 2008, published 2012):
Converted amounts (≈) assume the structure as drawn.

Legend:
[1] = tested on: cortical neurons in hAPP-transfected rat brain slices; assay: Rat brain slice AD model (hAPP-induced neurodegeneration); format: cell-based; settings: rat brain slices transfected with EYFP and hAPP, three concentrations, 72 hrs (FIG. 8)
Excerpt: A rodent brain slice model for AD has been developed where the expression of human APP by particle-mediated gene transfer (“biolistics”) leads to typical signs of neuronal dystrophy, and ultimately the degeneration and clearance of the cell body with a few days. Brain slice preparations offer a powerful experimental system because they preserve the three-dimensional tissue architecture and local environment of neurons and glia far better than dissociated cell culture. As such, drug lead candidates that show neuroprotective activity in brain-tissue based disease models have a much increased ability to predict efficacy in vivo and ultimately in the clinic.
Preparation of Brain Slice Explants. Cd Sprague-Dawley Rat Pups are Used at Postnatal day 10. Brains are cut into 250 μm coronal slices on a vibratome in chilled medium baths. Approximately 6 such slices can be cut from each rat brain; each are divided into “hemi-coronal” slices which are placed in individual 6-well transwell inserts. […]
Assessment of cortical neuron health. […] Representative images are captured using a digital camera on a fluorescence microscope. After 3 days, cortical neurons are scored. […] Statistical significance of the neuronal counts in compound-treated slices is evaluated by ANOVA analysis, followed by post hoc Dunnett's analysis at the p≦0.05 confidence level. […]

[2] = Metabolic stability in human liver microsomes; format: in vitro ADME; settings: human, read-out: Half life, t1/2 HLM
[3] = Chemical stability (H2O, pH 7.4); format: physicochemical
[4] = Metabolic stability in human S9 fraction; format: in vitro ADME; settings: read-out: Half life, t1/2 S9
MGAT3 [5] = assay: MGAT3 transcription ratio, AD patient / control PBMCs (qPCR); format: cell-based, human; settings: Aβ stimulation
Method: (§1) qPCR reactions of cultured monocyte cDNAs. One μL total cellular cDNA per reaction is used in triplicate reactions for each test gene, and for each culture treatment. SYBR-Green reactions were run on a Continuous Fluorescence real-time thermocycler and analyzed. Cycle threshold (Ct) values are recorded for each replicate reaction, and are then averaged and normalized against mean Ct values from one or more control genes. Fold-expression differences relative to untreated cells are determined using the 2^−ΔΔCt method as previously described. Data from the curcumin concentration range are plotted in order to determine EC50 values (concentrations producing one-half maximal stimulant activity), which are used for comparisons of potency between different compounds. Data are also evaluated for each gene with regard to sensitivity, maximally effective concentration of curcuminoid, response to Aβ, and overall magnitude of fold-expression changes.
(§2) MGAT3 and/or TLR transcription were tested by qPCR in human monocyte cells treated with curcuminoids and compared the results to those treated with vehicle (Table 7). As discussed above, activation or up-regulation of macrophage MGAT3 or TLR's results in many functional outcomes, including the enhancement of […] and removal of Aβ, increased apoptosis, secretion of inflammatory cytokines, and other anti-AD antimicrobial activities. […] Thus, the ratio of MGAT3 or TLR transcription upon Aβ stimulation of human monocytes versus vehicle treatment provides an indicator and sensitive method to test the in vitro efficacy of drug candidates. […] The relative biological activity of the curcumin analogs in AD patient and control cells was ascertained in the in vitro Aβ assay described above (see Example 2).

Average solubility = format: physicochemical
Average permeability = format: in vitro ADME; settings: not told
ALS PBMCs = assay: Mutant SOD-1 induced polarization of ALS PBMCs to the Th17 type; format: cell-based, human
Excerpt: (§3) More recently, it was shown that PBMCs isolated from ALS patients, and to a lesser extent from control subjects, strongly express COX-2 and other cytokines after stimulation with aggregated wild-type or mutant SOD-1. […] It was also shown that mutant SOD-1 induced polarization of ALS PBMCs to the Th17 type, but the induction was inhibited by 10.

MGAT3 [6] = assay: MGAT3 gene expression by qPCR in U-937 human monocytic cells treated with curcumins plus Aβ; format: cell-based; settings: human monocytic cells (U-937), curcumin plus Aβ
Method: (§4) Cell culture conditions for monocytic cell lines. Human and mouse monocyte cell lines are grown in RPMI-1640 medium with 10% fetal bovine serum (FBS), plus glutamine and pen/strep. For treatment with compounds (curcuminoids+/−Aβ), replicate sets of 0.5-1.0 mL cultures containing 1-2×10^6 cells are set up in the wells of 48-well tissue culture plates. Both replicate sets have at least one control well receiving no added curcuminoid to provide baseline expression controls for untreated, and Aβ-only treated cells. Remaining wells receive curcuminoid in a range of 10-fold serial dilutions in DMSO, typically from […] Cultures are incubated for 20-24 hours (“overnight”) at 37° C. in atmosphere with 5% CO2. After one overnight, to one of replicate sets of cultures is added Aβ (1-42) peptide to a final concentration of 5 μg/mL.
(§5) RNA isolation and cDNA synthesis. After the first overnight incubation in the presence of curcuminoid, cells from one replicate set of wells are collected by centifugation. RNAs are extracted from pelleted cells using miniprep column kits following manufacturer's protocol for animal cells. […] of total cellular RNA from each well is quantitated using a Nanodrop spectrophotometer, and first-strand total cDNA is prepared from 0.3-1.0 μg RNA by random-hexamer priming. Following the second 20 hr. incubation in the presence of Aβ, RNA extractions and cDNA synthesis are similarly performed.
Assay development. Gene-specific mRNA levels are determined using a real-time thermocycler, and by normalizing to expression of one or more control genes. Assays for quantifying mRNA levels are based on gene sequences reported in NCBI Genbank. PCR oligonucleotide primers are selected spanning introns to minimize the opportunity for amplication from any contaminating genomic DNA in the RNA preps. Oligonucleotides are typically tested and used at a concentration of 200 nM in qPCR reactions containing SYBR dye. Control reactions include template from cDNA synthesis reactions either + or − reverse transcriptase (RT), as well as no-template controls (ntc). […] Melt curves based on incremental 0.5° C. increases are determined for new assays to test for uniformity of amplified products. […]
qPCR reactions of cultured monocyte cDNAs. […] SYBR-Green reactions were run on a Continuous Fluorescence real-time thermocycler and analyzed. Cycle threshold (Ct) values are recorded for each replicate reaction, and are then averaged and normalized against mean Ct values from one or more control genes. Fold-expression differences relative to untreated cells are determined using the 2^−ΔΔCt method as previously described. […] Data are also evaluated for each gene with regard to sensitivity, maximally effective concentration of curcuminoid, response to Aβ, and overall magnitude of fold-expression changes. […]

VDR = VDR gene expression by qPCR in U-937 human monocytic cells treated with curcumins plus Aβ; format: cell-based; settings: for Relative gene expression VDR, increased expression relative to control cells: human monocytic cells (U-937), curcumin plus Aβ
Method: as §4, §5
(§6) Assay development. Gene-specific mRNA levels are determined using a real-time thermocycler, and by normalizing to expression of one or more control genes. Assays for quantifying mRNA levels are based on gene sequences reported in NCBI Genbank. PCR oligonucleotide primers are selected spanning introns to minimize the opportunity for amplication from any contaminating genomic DNA in the RNA preps. Oligonucleotides are typically tested and used at a concentration of 200 nM in qPCR reactions containing SYBR dye. Control reactions include template from cDNA synthesis reactions either + or − reverse transcriptase (RT), as well as no-template controls (ntc). All reactions are performed in triplicate. Reactions are typically run with 40 cycles of 95° C. (10 sec) and 58° C. (30 sec). Melt curves based on incremental 0.5° C. increases are determined for new assays to test for uniformity of amplified products. Reaction conditions are modified as needed depending on initial test results. ‘Working’ assays are selected based on clear RNA-dependent amplification and absence of product in ‘ntc’ reactions. The following assay primers are used: […]
as §1
(§7) Data showing in vitro up-regulation of genes associated with Aβ phagocytosis in response to curcumins. Natural curcumins and synthetic analogs were tested in U-937 human monocyte cells in vitro for their ability to modulate expression of the genes MGAT3 and TLRs −2, −3, and −4. […]

TLR2 = TLR2 gene expression by qPCR in U-937 human monocytic cells treated with curcumins plus Aβ; format: cell-based; settings: for Relative gene expression TLR2, increased expression relative to control cells: human monocytic cells (U-937), curcumin plus Aβ
Method: as §4, §5, §6
(§8) qPCR reactions of cultured monocyte cDNAs. One μL total cellular cDNA per reaction is used in triplicate reactions for each test gene, and for each culture treatment. SYBR-Green reactions were run on a Continuous Fluorescence real-time thermocycler and analyzed. Cycle threshold (Ct) values are recorded for each replicate reaction, and are then averaged and normalized against mean Ct values from one or more control genes. Fold-expression differences relative to untreated cells are determined using the 2^−ΔΔCt method as previously described. […] Data are also evaluated for each gene with regard to sensitivity, maximally effective concentration of curcuminoid, response to Aβ, and overall magnitude of fold-expression changes. […]

COX-2 = assay: Inhibition of SOD1-induced COX-2 expression in ALS PBMCs; format: cell-based, human; settings: aggregated wild-type or mutant SOD-1
Excerpt: as §3

TLR3 = TLR3 gene expression by qPCR in U-937 human monocytic cells treated with curcumins plus Aβ; format: cell-based; settings: for TLR3 expression response (in words): U-937, plus Aβ (FIG. 3); for Relative gene expression TLR3, increased expression relative to control cells: human monocytic cells (U-937), curcumin plus Aβ
Method: as §4, §5, §6, §1, §7

TLR4 = TLR4 gene expression by qPCR in U-937 human monocytic cells treated with curcumins plus Aβ; format: cell-based; settings: for Relative gene expression TLR4, increased expression relative to control cells: human monocytic cells (U-937), curcumin plus Aβ
Method: as §4, §5, §6, §8

TLR 2 = TLR 2 transcription ratio, AD patient / control PBMCs (qPCR); format: cell-based, human; settings: Aβ stimulation
Method: as §1, §2

TLR 4 = TLR 4 transcription ratio, AD patient / control PBMCs (qPCR); format: cell-based, human; settings: Aβ stimulation
Method: as §1, §2

TLR 3 = TLR 3 transcription ratio, AD patient / control PBMCs (qPCR); format: cell-based, human; settings: Aβ stimulation
Method: as §1, §2

| half-life [2] [min] | half-life [4] [min] | IC50 (Anti-oxidant activity) [µM] | Compound | Relative ratio of MGAT3 transcription in AD patient / control PBMC's (MGAT3 [5]) | solubility (Average solubility) [µg/mL] | Papp (Average permeability) [×10⁻⁶ cm/s] | Relative gene expression MGAT3, increased expression relative to control cells (MGAT3 [6]) | Relative gene expression VDR, increased expression relative to control cells (VDR) | Relative gene expression TLR2, increased expression relative to control cells (TLR2) | TLR3 expression response (in words) (TLR3) | Relative gene expression TLR3, increased expression relative to control cells (TLR3) | Relative gene expression TLR4, increased expression relative to control cells (TLR4) | also measured |
| --- | --- | --- | --- | --- | --- | --- | --- | --- | --- | --- | --- | --- | --- |
| 127 | 311 | 155 | CN(C)c1ccc(/C=C/C(O)=C2\CCC/C(=C\c3ccc(N(C)C)cc3)C2=O)cc1 [Compound 10] |  |  |  | +++ ((+++) >40-fold) | +++++ ((+++++) >1000-fold) | ++ ((++) >20-fold) | considerably higher expression | +++ ((+++) >40-fold) | + ((+) <20-fold) | Induction of Th17 polarization by mutant SOD-1 (ALS PBMCs): inhibited; Chemical stability H2O (stable/unstable) ([3]; H2O): stable (stability half-lives greater than 5 hours); Stability compared with BDC (in words) ([3]; chemical and metabolic stability): markedly greater stability than BDC; Chemical stability pH 7.4 (stable/unstable) ([3]; pH 7.4): stable (stability half-lives greater than 5 hours); VDR expression increase (VDR; human monocytes, plus Aβ (FIG. 5)): 10^3 fold; Concentration giving maximal TLR2 expression (TLR2; U-937, in the presence of Aβ (FIG. 2)): 1 nM; Induction of COX-2 by SOD-1 after pretreatment (COX-2): blocked; Concentration giving maximal TLR4 response (TLR4; U-937, plus Aβ (FIG. 4)): approximately 10 nM |
| 23.8 | 5.9 | > 250 | CC(C)C(N)C(=O)Oc1ccc(/C=C/C(=O)/C=C(O)/C=C/c2ccc(OC(=O)C(N)C(C)C)cc2)cc1 (stereo not drawn) [Compound 33, 4,4′-(3,5-Dioxohepta-1,6-diene-1,7-diyl)bis(4,1-phenylene) bis(2-amino-3-methylbutanoate)] | + ((+) indicates a ratio of 1.0-1.5) | 18.2 (≈ 35.9 µM) | 316 | +++ ((+++) >40-fold) | ++ ((++) >20-fold) | + ((+) <20-fold) | limited response | + ((+) <20-fold) | + ((+) <20-fold) | Relative ratio of TLR 2 transcription in AD patient / control PBMC's (TLR 2): TLR 2 ++ ((++) indicates a ratio of 1.5-2.0); Relative ratio of TLR 4 transcription in AD patient / control PBMC's (TLR 4): TLR 4 + ((+) indicates a ratio of 1.0-1.5); half-life ([3]; water (aqueous solution), pH 7.4, value given in h, read-out: Chemical stability t1/2 pH 7.4 (converted)): 60 min; half-life ([3]; water, H2O, value given in h, read-out: Chemical stability t1/2 H2O (converted)): 1130 min; VDR normalized expression response (in words) (VDR; human monocytes, plus Aβ): somewhat higher expression; Relative ratio of TLR 3 transcription in AD patient / control PBMC's (TLR 3): TLR 3 ++ ((++) indicates a ratio of 1.5-2.0); Solubility compared with parent compounds (in words) (Average solubility): significantly improved solubility |

| Compound | half-life [2] [min] | half-life [4] [min] | IC50 (Anti-oxidant activity) [µM] | Relative ratio of MGAT3 transcription in AD patient / control PBMC's (MGAT3 [5]) | solubility (Average solubility) [µg/mL] | Papp (Average permeability) [×10⁻⁶ cm/s] | Relative gene expression MGAT3, increased expression relative to control cells (MGAT3 [6]) | Relative gene expression VDR, increased expression relative to control cells (VDR) | Relative gene expression TLR2, increased expression relative to control cells (TLR2) | TLR3 expression response (in words) (TLR3) | Relative gene expression TLR3, increased expression relative to control cells (TLR3) | Relative gene expression TLR4, increased expression relative to control cells (TLR4) | also measured |
| --- | --- | --- | --- | --- | --- | --- | --- | --- | --- | --- | --- | --- | --- |
| COc1cc(/C=C/C(=O)/C=C(O)/C=C/c2ccc(O)c(OC)c2)ccc1O [Compound 2, 1,7-Bis(4-hydroxy-3-methoxyphenyl)-5-hydroxy-hepta-1,4,6-trien-3-one, reference compound] | 40.8 | 10.1 | 31.7 | + ((+) indicates a ratio of 1.0-1.5) | 9.5 (≈ 25.8 µM) | 844 ± 24 |  |  |  |  |  |  | Neuroprotective effect against hAPP-induced neurodegeneration [1]: prevent widespread neurodegeneration in a dose-dependent manner; half-life ([3]; water (aqueous solution), pH 7.4, read-out: Chemical stability t1/2 pH 7.4 (converted)): 15.9 min; half-life ([3]; water, H2O, read-out: Chemical stability t1/2 H2O (converted)): 73.5 min |
